Assay results published in PubChem BioAssay AID2060498 (Molecular Pharmacology Branch, DTP, NCI, 2025).

System: 171881-019-R-J1-PDC tumor spheroids, viability
Test: Anticancer human tumor 171881-019-R-J1-PDC patient-derived invasive breast carcinoma cell line growth inhibition [GQUAD]
Conditions: spheroids with HUVEC and MSC; for IC50: curve of first compound; for viability, T/C: stronger effect = lower value
Procedure, shortened: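 Viability of tumor cells grown as complex spheroids with endothelial and stromal cells, exposed to drug combinations. Top concentration at or near clinical Cmax (else 10 microM), diluted in half-log increments.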

[1] = second compound 0.0316 µM, first compound 0.0316 µM
[2] = second compound 0.0316 µM, first compound 0.1 µM
[3] = second compound 0.0316 µM, first compound 0.316 µM
[4] = second compound 0.0316 µM, first compound 1 µM
[5] = second compound 0.0316 µM, first compound 3.16 µM
[6] = second compound 0.0316 µM, first compound 10 µM
[7] = second compound 0.1 µM, first compound 0.0316 µM
[8] = second compound 0.1 µM, first compound 0.1 µM
[9] = second compound 0.1 µM, first compound 0.316 µM
[10] = second compound 0.1 µM, first compound 1 µM
[11] = second compound 0.1 µM, first compound 3.16 µM
[12] = second compound 0.1 µM, first compound 10 µM
[13] = second compound 0.316 µM, first compound 0.0316 µM
[14] = second compound 0.316 µM, first compound 0.1 µM
[15] = second compound 0.316 µM, first compound 0.316 µM
[16] = second compound 0.316 µM, first compound 1 µM
[17] = second compound 0.316 µM, first compound 3.16 µM
[18] = second compound 0.316 µM, first compound 10 µM
[19] = second compound 1 µM, first compound 0.0316 µM
[20] = second compound 1 µM, first compound 0.1 µM
[21] = second compound 1 µM, first compound 0.316 µM
[22] = second compound 1 µM, first compound 1 µM
[23] = second compound 1 µM, first compound 3.16 µM
[24] = second compound 1 µM, first compound 10 µM
[25] = second compound 3.16 µM, first compound 0.0316 µM
[26] = second compound 3.16 µM, first compound 0.1 µM
[27] = second compound 3.16 µM, first compound 0.316 µM
[28] = second compound 3.16 µM, first compound 1 µM
[29] = second compound 3.16 µM, first compound 3.16 µM
[30] = second compound 3.16 µM, first compound 10 µM
[31] = second compound 10 µM, first compound 0.0316 µM
[32] = second compound 10 µM, first compound 0.1 µM
[33] = second compound 10 µM, first compound 0.316 µM
[34] = second compound 10 µM, first compound 1 µM
[35] = second compound 10 µM, first compound 3.16 µM
[36] = second compound 10 µM, first compound 10 µM
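Throughout, for viability, T/C: 100% = DMSO vehicle control viability.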

Compound: O=C(NO)c1cnc(N2CCN(S(=O)(=O)c3ccc4ccccc4c3)CC2)nc1 + Cc1[nH]c2ccc(F)cc2c1-c1nc2c3cccnc3c3ncccc3c2[nH]1
- IC50 (second compound 0.0316 µM): 348 nM
- IC50 (second compound 0.1 µM): 410 nM
- IC50 (second compound 0.316 µM): 341 nM
- IC50 (second compound 1 µM): 148 nM
- IC50 (second compound 3.16 µM): < 31.6 nM
- IC50 (second compound 10 µM): < 31.6 nM
- viability, T/C [1]: 93.7%
- viability, T/C [2]: 83.3%
- viability, T/C [3]: 55%
- viability, T/C [4]: 1.74%
- viability, T/C [5]: 0.09%
- viability, T/C [6]: 0.15%
- viability, T/C [7]: 88.4%
- viability, T/C [8]: 78.7%
- viability, T/C [9]: 63.8%
- viability, T/C [10]: 2.75%
- viability, T/C [11]: 0.09%
- viability, T/C [12]: 0.11%
- viability, T/C [13]: 73.3%
- viability, T/C [14]: 65.3%
- viability, T/C [15]: 53.4%
- viability, T/C [16]: 2.53%
- viability, T/C [17]: 0.14%
- viability, T/C [18]: 0.21%
- viability, T/C [19]: 60.2%
- viability, T/C [20]: 49.3%
- viability, T/C [21]: 41.2%
- viability, T/C [22]: 1.79%
- viability, T/C [23]: 0.34%
- viability, T/C [24]: 0.4%
- viability, T/C [25]: 7.54%
- viability, T/C [26]: 5.44%
- viability, T/C [27]: 2.89%
- viability, T/C [28]: 0.17%
- viability, T/C [29]: 0.14%
- viability, T/C [30]: 0.28%
- viability, T/C [31]: 34.9%
- viability, T/C [32]: 31.9%
- viability, T/C [33]: 24.6%
- viability, T/C [34]: 0.85%
- viability, T/C [35]: 0.2%
- viability, T/C [36]: 0.32%

Compound: CCCS(=O)(=O)Nc1ccc(F)c(C(=O)c2c[nH]c3ncc(-c4ccc(Cl)cc4)cc23)c1F + CN(C)c1ccc(Nc2c3ccc(NC(=O)CCN4CCCC4)cc3nc3cc(NC(=O)CCN4CCCC4)ccc23)cc1
- IC50 (second compound 0.0316 µM): 9820 nM
- IC50 (second compound 0.1 µM): 9480 nM
- IC50 (second compound 0.316 µM): 3260 nM
- IC50 (second compound 1 µM): < 31.6 nM
- IC50 (second compound 3.16 µM): < 31.6 nM
- IC50 (second compound 10 µM): < 31.6 nM
- viability, T/C [1]: 99.8%
- viability, T/C [2]: 108%
- viability, T/C [3]: 102%
- viability, T/C [4]: 116%
- viability, T/C [5]: 93.7%
- viability, T/C [6]: 49.2%
- viability, T/C [7]: 76.9%
- viability, T/C [8]: 100%
- viability, T/C [9]: 84.2%
- viability, T/C [10]: 104%
- viability, T/C [11]: 94.5%
- viability, T/C [12]: 47.9%
- viability, T/C [13]: 43.8%
- viability, T/C [14]: 53.4%
- viability, T/C [15]: 55.8%
- viability, T/C [16]: 44.1%
- viability, T/C [17]: 56.2%
- viability, T/C [18]: 25.8%
- viability, T/C [19]: 5.16%
- viability, T/C [20]: 3.85%
- viability, T/C [21]: 4.58%
- viability, T/C [22]: 3.58%
- viability, T/C [23]: 3.49%
- viability, T/C [24]: 3.08%
- viability, T/C [25]: 0.35%
- viability, T/C [26]: 0.31%
- viability, T/C [27]: 0.72%
- viability, T/C [28]: 0.43%
- viability, T/C [29]: 0.5%
- viability, T/C [30]: 0.53%
- viability, T/C [31]: 0.11%
- viability, T/C [32]: 0.23%
- viability, T/C [33]: 0.24%
- viability, T/C [34]: 0.32%
- viability, T/C [35]: 0.57%
- viability, T/C [36]: 0.3%

Compound: CCc1c2c(nc3ccc(O)cc13)-c1cc3c(c(=O)n1C2)COC(=O)[C@]3(O)CC + CN(C)c1ccc(Nc2c3ccc(NC(=O)CCN4CCCC4)cc3nc3cc(NC(=O)CCN4CCCC4)ccc23)cc1
- IC50 (second compound 0.0316 µM): 8 nM
- IC50 (second compound 0.1 µM): 7.74 nM
- IC50 (second compound 0.316 µM): 4.32 nM
- IC50 (second compound 1 µM): < 0.999 nM
- IC50 (second compound 3.16 µM): < 0.999 nM
- IC50 (second compound 10 µM): < 0.999 nM
- viability, T/C (second compound 0.0316 µM, first compound 0.000999 µM): 91.8%
- viability, T/C (second compound 0.0316 µM, first compound 0.00316 µM): 56.5%
- viability, T/C (second compound 0.0316 µM, first compound 0.00999 µM): 49.2%
- viability, T/C [1]: 42.3%
- viability, T/C (second compound 0.0316 µM, first compound 0.0999 µM): 33.4%
- viability, T/C [3]: 24.8%
- viability, T/C (second compound 0.1 µM, first compound 0.000999 µM): 94.9%
- viability, T/C (second compound 0.1 µM, first compound 0.00316 µM): 55.6%
- viability, T/C (second compound 0.1 µM, first compound 0.00999 µM): 50.2%
- viability, T/C [7]: 43.8%
- viability, T/C (second compound 0.1 µM, first compound 0.0999 µM): 32.4%
- viability, T/C [9]: 27.4%
- viability, T/C (second compound 0.316 µM, first compound 0.000999 µM): 77.1%
- viability, T/C (second compound 0.316 µM, first compound 0.00316 µM): 51.1%
- viability, T/C (second compound 0.316 µM, first compound 0.00999 µM): 42.2%
- viability, T/C [13]: 30.9%
- viability, T/C (second compound 0.316 µM, first compound 0.0999 µM): 30.3%
- viability, T/C [15]: 22%
- viability, T/C (second compound 1 µM, first compound 0.000999 µM): 16.3%
- viability, T/C (second compound 1 µM, first compound 0.00316 µM): 12.6%
- viability, T/C (second compound 1 µM, first compound 0.00999 µM): 17%
- viability, T/C [19]: 11%
- viability, T/C (second compound 1 µM, first compound 0.0999 µM): 7.94%
- viability, T/C [21]: 6.83%
- viability, T/C (second compound 3.16 µM, first compound 0.000999 µM): 2.04%
- viability, T/C (second compound 3.16 µM, first compound 0.00316 µM): 1.12%
- viability, T/C (second compound 3.16 µM, first compound 0.00999 µM): 2.08%
- viability, T/C [25]: 1.29%
- viability, T/C (second compound 3.16 µM, first compound 0.0999 µM): 1.67%
- viability, T/C [27]: 1.67%
- viability, T/C (second compound 10 µM, first compound 0.000999 µM): 0.56%
- viability, T/C (second compound 10 µM, first compound 0.00316 µM): 0.37%
- viability, T/C (second compound 10 µM, first compound 0.00999 µM): 0.38%
- viability, T/C [31]: 0.48%
- viability, T/C (second compound 10 µM, first compound 0.0999 µM): 0.49%
- viability, T/C [33]: 0.16%
